The text below walks through data of PubChem BioAssay AID743395 (Broad Institute, 2014).

The test system of the assay is HepG2 viability, CellTiter-Glo ATP luminescence, 72 h. Kind of assay: HepG2 cell cytotoxicity, dose response, cytotoxicity control, CellTiter-Glo luminescence, cherry-pick, set 2 (AID 743395). In general terms: ATP-based viability assays read luminescence as a measure of living cells.
Turning to `COc1ccc(OC)c(Nc2nc(-c3sc(NC(=O)C(C)(C)C)nc3C)cs2)c1`, the AC35 was 9.87 µM.
With `COc1cccc(C(=O)Nc2sc3c(c2C#N)CCN(C(C)=O)C3)c1` the figure was 11.6 µM.
As for `COc1ccc(C2=Nn3c(nnc3-c3ccccc3F)SC2)cc1OC1CCCC1`, the figure is 11.1 µM; as for `CCC1=C(CC2NCCc3ccccc32)CC2c3cc(OC)c(OC)cc3CCN2C1` (stereo not given), 18.2 µM.
As for `CCN(CC)c1ccc(/C=N/NC(=O)c2cnccn2)cc1`, the figure is 6.68 µM; as for `Cc1ccc(C2(C)NC(=O)N(CC(=O)Nc3nc(-c4ccccn4)cs3)C2=O)cc1` (stereo not given), 4.46 µM.
Regarding `COc1ccc(S(=O)(=O)N2CC[C@@H]3[C@@H](CO)Nc4ccc(-c5cccc(C#N)c5)cc4[C@@H]32)cc1`, the AC35 is 14 µM.
On to `COc1cc(C2CC(=O)N(c3ccc(C)cc3)C(=O)C2)cc(OC)c1OC`, for which the AC35 was 10.7 µM.
With `Cc1cc(C)c2nc(Cl)c(CN(Cc3ccco3)C(=O)Nc3ccccc3C)cc2c1` the figure was 5.84 µM.
As for `O=C1C=C(NCCc2cc(Br)c(O)c(Br)c2)C(=O)c2ncccc21`, the figure is 6.95 µM.
With `CCCC(=O)NC(c1ccc(N(C)C)cc1)c1ccc2cccnc2c1O` (stereo not given) the figure was 1.18 µM; with `CCCCNc1c(-c2ccc(SC(C)CC)c(OC)c2)nc2ccc(C)cn12` (stereo not given), 13.6 µM.
Regarding `CCOC(=O)c1ccc(N2CCOCC2)c(NC(=O)c2c(-c3ccccc3)noc2C)c1`, the AC35 was 3.87 µM.
Regarding `NC(=S)NN=Cc1nccc2c(N)cccc12`, the AC35 was 4.16 µM.
As for `CC(C)Cc1ccc(-c2cc3nc(NCc4cccc(Cl)c4)ccn3n2)cc1`, the figure is 11.1 µM.
As for `O=C(c1cc(-c2ccncc2)nc2c(Cl)cccc12)N1CCN(c2ccccc2F)CC1`, the figure is 8.73 µM.
With `COc1c(O)cc2c(c1OC)-c1ccc(OC)c(=O)cc1C(NC(C)=O)CC2` (stereo not given) the figure was 0.453 µM; with `CN(C)C(=O)C(CCN1CCC(O)(c2ccc(Cl)cc2)CC1)(c1ccccc1)c1ccccc1`, 10.1 µM; with `CCC1=Nc2cc(C(=O)NCC3CCCO3)ccc2Sc2ccc(Cl)cc21` (stereo not given), 10.6 µM.
As to `NC(=O)N=Nc1c2[nH]c3ccccc3nc-2c2ccccc12`, the AC35 is 16.6 µM.
With `CC(C)Oc1ncnc2c1[nH]c1ccccc12` the figure was 8.5 µM.
With `CN1c2ccc(-c3ccc(F)cc3)cc2[C@H]2[C@H](CCN2S(=O)(=O)c2ccc(F)cc2)[C@@H]1CO` the figure was 20.9 µM; with `COc1cc(Nc2c3c(nc4ccccc24)CCC3)cc(OC)c1OC`, 7.54 µM; with `Nc1[nH]c(C(=O)c2ccccc2)c(-c2ccccc2C(F)(F)F)c1C(=O)NCCc1c[nH]c2ccccc12`, 22.4 µM.
With `Clc1ccc2c(c1)-c1ccccc1C1=NCCN12` the figure was 3.06 µM.
As to `COc1cccc2c1C(=O)c1c(O)c3c(c(O)c1C2=O)C[C@](O)(C(C)=O)C[C@H]3O[C@@H]1C[C@@H](N)[C@@H](O)[C@@H](C)O1`, the AC35 was 0.0738 µM.
With `CC1=Nc2cc(C(=O)NCC3CCCO3)ccc2Sc2ccc(Br)cc21` (stereo not given) the figure was 19.4 µM; with `O=C(Nc1nc(-c2ccccn2)cs1)c1ccc(F)c(S(=O)(=O)N2CCOCC2)c1`, 11.3 µM; with `O=C(C1CC1)N1CC(=O)N2[C@H](CO)[C@@H](c3ccc(-c4ccccc4F)cc3)[C@@H]2C1`, 18.9 µM.
As for `COc1ccc(C(=O)OCC(=O)N2C(C)CCCC2C)cc1S(=O)(=O)N1CCOCC1` (stereo not given), the AC35 is 18.7 µM.
As for `CC1OC(OC2CC(O)C3(CO)C4C(O)CC5(C)C(C6=CC(=O)OC6)CCC5(O)C4CCC3(O)C2)C(O)C(O)C1O` (stereo not given), the figure is 0.201 µM.
Consider `C=CCN1c2ccccc2[C@]23C[C@@H](C(=O)OC)N(C(=O)c4cccs4)C2=NC(C(=O)OC)=C(C(=O)OC)[C@H]13`, for which the AC35 was 19.1 µM.
As for `NS(=O)(=O)c1ccc(S(=O)(=O)N(CCc2ccccc2)Cc2ccccn2)cc1`, the figure is 21.5 µM; as for `CC12CCC(CC1O)C2C(=O)O` (stereo not given), 17.9 µM.
With `CCOC(=O)c1ccc(Nc2sc(C(=O)c3cccc([N+](=O)[O-])c3)c(N)c2C#N)cc1` the figure was 6.7 µM.
With `CN(CC1CCCO1)S(=O)(=O)c1ccc(C(=O)Nc2nnc(-c3ccccc3)o2)cc1` (stereo not given) the figure was 9.86 µM; with `CC(=O)Nc1sc2c(c1-c1nc3ccccc3s1)CN(C(C)C)CC2`, 3.4 µM.
Consider `CCN(CC)CCCNc1nc2ccccc2c2nc(-c3ccncc3)nn12`, for which the AC35 was 7.23 µM.
As for `COc1ccc(S(=O)(=O)N(C(=O)C(C)C)c2ccc3oc(=O)sc3c2)cc1`, the figure is 17.1 µM.
As for `Cc1ccc(C2NC(=O)c3ccccc3N2)c(C)c1` (stereo not given), the figure is 13.8 µM; as for `COc1ccc([C@H]2CC(=O)C=C(c3c(OC)cccc3OC)C2)cc1`, 3.37 µM; as for `CCCC(=O)NC(NC(=S)Nc1ccc(N=Nc2ccccc2)cc1)C(Cl)(Cl)Cl` (stereo not given), 5.73 µM.
Regarding `COc1ccc(-c2cc(C(F)F)n3ncc(C(=O)N4CCc5ccccc54)c3n2)cc1`, the AC35 is 9.81 µM.
As for `COC(=O)c1ccc(S(=O)(=O)N2CCc3ccccc32)cc1`, the figure is 16.1 µM.
With `CC1CCN(C(=O)C2COc3ccccc3O2)CC1` (stereo not given) the figure was 21.8 µM; with `CC(=O)N1CCc2c(sc(NC(=O)c3ccc4c(c3)OCCO4)c2C#N)C1`, 19.4 µM.
With `O=C(N/N=C/c1cc(Br)cc(Cl)c1O)c1ccc2c(c1)OCO2` the figure was 10.6 µM; with `Cc1cccc(NS(=O)(=O)c2ccc(-c3cnc(C4CC4)o3)cc2)c1`, 5.11 µM.
With `COc1ccc(C2c3ccc4ccccc4c3Oc3ncn(CCCO)c(=N)c32)cc1OC` (stereo not given), the AC35 was 18.7 µM.
Take `O=C(C[C@@H]1CC[C@H]2[C@@H](COC[C@H](O)CN2Cc2ccc3c(c2)OCO3)O1)Nc1ccc(-c2ccccc2)cc1`: the AC35 was 16.8 µM.
With `COc1cc(OC)c2c(-c3cccc(-c4cccc(N)c4)c3)cc(=O)oc2c1` the figure was 13.4 µM.
With `Oc1c(Cl)cc(CN2CCOCC2)c2cccnc12` the figure was 7.67 µM.
As for `COc1ccc(Nc2nc(-c3sc(C)nc3C)cs2)cc1`, the figure is 1.29 µM; as for `CCN(Cc1ccccc1)c1ccc(/C=N/N=C(N)N)cc1`, 6.82 µM.
For `COc1ccccc1C(=O)NC(=S)/C=C1/N(C)c2ccccc2C1(C)C`, the AC35 was 16 µM.
As for `Cc1ccc(-c2csc3ncn(CC#N)c(=O)c23)cc1C`, the figure is 17.9 µM; as for `N=C1/C(=C/c2cccn2CCOc2ccccc2)C(=O)N=C2SC=C(c3ccccc3)N12`, 19.3 µM; as for `Cc1nc(N)[nH]c(=O)c1CCCNS(=O)(=O)c1ccc([N+](=O)[O-])cc1`, 17.1 µM.
As for `CC(C)(C)c1ccc(/C=C/C(=O)c2ccc(NC3=NCCCS3)cc2)cc1`, the figure is 18.2 µM.
With `COc1cc(C(=O)Nc2ccc3c(c2)CCN3C(C)=O)cc(OC)c1OC` the figure was 3.94 µM; with `CC(=O)Nc1ccc(Nc2c3ccccc3nc3ccccc23)cc1`, 5.33 µM.
`COc1ccc(/C(C)=N/NC(=O)c2cccc(S(=O)(=O)N3CCCC3)c2)c(O)c1`: the AC35 is 0.944 µM.
As for `Cc1ccc2c(C)c3ccc4ccccc4c3c[n+]2c1`, the figure is 5.47 µM.
As for `COc1ccc(OC)c(/C(C)=N\NC(=O)c2cc3cc(Cl)ccc3n2C)c1`, the figure is 14 µM.
As for `O=C(N/N=C/c1c(O)ccc2ccccc12)c1ccc(Br)o1`, the figure is 1.18 µM.
Turning to `O=C(c1cccc(F)c1)N1CC(=O)N2[C@@H](CO)[C@@H](c3ccc(C#Cc4ccc(F)cc4)cc3)[C@@H]2C1`, the AC35 was 17.9 µM.
As to `C[C@@H]1CN([C@@H](C)CO)C(=O)c2cc(NS(=O)(=O)c3ccc(Cl)cc3)ccc2O[C@@H]1CN(C)Cc1ccc(C(F)(F)F)cc1`, the AC35 was 16.4 µM.
As to `COc1cccc2c1C(=O)c1c(O)c3c(c(O)c1C2=O)CC(O)(C(=O)CO)CC3OC1CC(N(C)C)C(O)C(C)O1` (stereo not given), the AC35 is 0.0659 µM.
As for `C[C@@H]1CN([C@@H](C)CO)C(=O)c2cc(C#CCN(C)C)cnc2O[C@H]1CN(C)Cc1ccc(-c2ccccc2)cc1`, the figure is 11.5 µM.
As for `CC(C)n1cc(/C=C/c2cc[n+](C)cc2)c2ccccc21`, the figure is 11.2 µM; as for `COc1ccc(S(=O)(=O)Nc2ccc3c(c2)C(=O)N([C@H](C)CO)C[C@@H](C)[C@@H](CN(C)Cc2ccc(Cl)c(Cl)c2)O3)cc1`, 14.1 µM; as for `O=[N+]([O-])c1ccc(Sc2cccc[n+]2[O-])c2nonc12`, 5.72 µM.
With `CC(C)C[C@H]1CN([C@@H](Cc2ccc(O)cc2)CN2CCC[C@H]2CN2C(=O)C(=O)NC[C@@H]2Cc2ccccc2)C(=O)C(=O)N1CC1CCCCC1` the figure was 15 µM.
Turning to `CN(C)CCNC(=O)c1ccc(Cl)c2cc3ccccc3nc12`, the AC35 is 2.59 µM.
In the case of `COc1cc(OC)c2c(-c3cccc(-c4sccc4C(C)=O)c3)cc(=O)oc2c1`, the AC35 was 7.12 µM.
As to `O=C1CC(c2ccccc2)CC2=C1C=Nc1ccccc1N2` (stereo not given), the AC35 was 18.3 µM.
As for `CN1/C(=C\C=C2/SC(=S)NC2=O)C(C)(C)c2ccccc21`, the figure is 17.9 µM.
As for `O=S(=O)(Nc1cc(Sc2cccc3cccnc23)c(O)c2ccccc12)c1ccccc1`, the figure is 7.49 µM; as for `Oc1ccc2ccccc2c1/C=C/c1ccc2c(Br)cc(Br)c(O)c2n1`, 9.42 µM.
With `COc1cc(/C=C2/SC(=S)N(Cc3ccccc3)C2=O)cc(Cl)c1O` the figure was 12.5 µM.
For the compound `N#CC(C#N)=C1C=C2C=C(N3CCCCCC3)CCC2CC1` (stereo not given), the AC35 was 18 µM.
As for `CCc1c(C)nc2ncnn2c1NCCc1ccc(OC)cc1`, the figure is 11.5 µM; as for `N#C[C@H]1[C@H](c2ccc(C3=CCCCC3)cc2)[C@@H](CO)N1C(=O)NC1CCCCC1`, 10.3 µM; as for `Cc1ccc2[nH]c(-c3ccccc3)cc(=O)c2c1`, 5.6 µM.
With `CCN1/C(=C/c2ccc3cc(C)cc(C)c3[n+]2CC)Sc2cc(C)ccc21` the figure was 0.908 µM; with `CC(=O)c1cccc(Nc2c3c(nc4ccccc24)CCC3)c1`, 17.9 µM.
With `COc1ccc2c3c([nH]c2c1)[C@H](CO)N(S(C)(=O)=O)CC31CCN(Cc2cccc(F)c2)CC1` the figure was 5.92 µM; with `O=C(N/N=C\c1c(O)ccc2ccccc12)c1cncc(Br)c1`, 1.18 µM; with `COc1cccc(S(=O)(=O)N(C)C[C@@H]2Oc3cc(C4=CCCC4)ccc3S(=O)(=O)N([C@H](C)CO)C[C@H]2C)c1`, 20.3 µM.
For `C=C1C(=O)O[C@@H]2C[C@@H](C)[C@@H]3C=CC(=O)[C@@]3(C)[C@@H](O)[C@H]12`, the AC35 was 2.99 µM.
